Values joined by “and” are separate entries in the source; they are usually repeats but may differ in a detail not shown here. Equal entries are not always repeated. Toxic doses and inconclusive results are not listed. Rule as the data show it: active = T/C of 150% or more; inactive = T/C below 125%.
System: L1210 leukemia ip in BDF1 mice, survival T/C
Test: NCI In Vivo Anticancer Drug Screen. Data for tumor model L1210 Leukemia (intraperitoneal) in B6D2F1 (BDF1) mice
Settings: endpoint: mean survival time, higher = longer survival
Summary of the method: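 Transplantable tumor model; survival measured in treated vs vehicle control mice. Value = treated/control.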

[1] = dose: 100.0 mg/kg/injection, schedule: Q01DX009 (ip), vehicle: saline with Tween-80
[2] = dose: 100.0 mg/kg/injection, schedule: Q04DX003 (ip), vehicle: saline with Tween-80
[3] = dose: 200.0 mg/kg/injection, schedule: Q01DX009 (ip), vehicle: saline with Tween-80
[4] = dose: 200.0 mg/kg/injection, schedule: Q04DX003 (ip), vehicle: saline with Tween-80
[5] = dose: 100.0 mg/kg/injection, schedule: Q04DX003 (ip), vehicle: Klucel (hydroxypropylcellulose) (HPC)
[6] = dose: 200.0 mg/kg/injection, schedule: Q04DX003 (ip), vehicle: Klucel (hydroxypropylcellulose) (HPC)
[7] = dose: 400.0 mg/kg/injection, schedule: Q04DX003 (ip), vehicle: Klucel (hydroxypropylcellulose) (HPC)
[8] = dose: 100.0 mg/kg/injection, schedule: Q04DX002 (ip), vehicle: Klucel (hydroxypropylcellulose) (HPC)
[9] = dose: 200.0 mg/kg/injection, schedule: Q04DX002 (ip), vehicle: Klucel (hydroxypropylcellulose) (HPC)
[10] = dose: 400.0 mg/kg/injection, schedule: Q04DX002 (ip), vehicle: Klucel (hydroxypropylcellulose) (HPC)
[11] = dose: 50.0 mg/kg/injection, schedule: Q04DX002 (ip), vehicle: Klucel (hydroxypropylcellulose) (HPC)
[12] = dose: 100.0 mg/kg/injection, schedule: Q01DX009 (ip), vehicle: Klucel (hydroxypropylcellulose) (HPC)
[13] = dose: 200.0 mg/kg/injection, schedule: Q01DX009 (ip), vehicle: Klucel (hydroxypropylcellulose) (HPC)
[14] = dose: 400.0 mg/kg/injection, schedule: Q01DX009 (ip), vehicle: Klucel (hydroxypropylcellulose) (HPC)

Measured: T/C

O=[N+]([O-])c1ccccc1NS(=O)(=O)c1ccccc1
inactive: [1] 95 % of control | [2] 93 % of control | [3] 96 % of control | [4] 97 % of control | dose: 400.0 mg/kg/injection, schedule: Q01DX009 (ip), vehicle: saline with Tween-80 98 % of control | dose: 400.0 mg/kg/injection, schedule: Q04DX003 (ip), vehicle: saline with Tween-80 97 % of control

CCOC(=O)C1CN(Cc2ccccc2)C(=O)C1=O (stereo unspecified)
inactive: dose: 50.0 mg/kg/injection, schedule: Q01DX001 (ip), vehicle: saline 102 % of control | dose: 75.0 mg/kg/injection, schedule: Q01DX009 (ip), vehicle: saline 101 % of control | dose: 100.0 mg/kg/injection, schedule: Q01DX001 (ip), vehicle: saline 102 % of control | dose: 150.0 mg/kg/injection, schedule: Q01DX009 (ip), vehicle: saline 99 % of control | dose: 200.0 mg/kg/injection, schedule: Q01DX001 (ip), vehicle: saline 102 % of control | dose: 300.0 mg/kg/injection, schedule: Q01DX009 (ip), vehicle: saline 99 % of control | dose: 400.0 mg/kg/injection, schedule: Q01DX001 (ip), vehicle: saline 114 % of control

CCc1cccc(CC)c1NC(=O)NS(=O)(=O)c1ccccc1
inactive: [1] 91 % of control | [3] 88 % of control

CCSc1nc(C=O)c(Cc2ccccc2)c(=O)[nH]1
inactive: [5] 101 % of control | [6] 103 % of control | [7] 98 % of control

O=S(=O)(c1ccccc1)N1CC2C3C=CC(C3)C2C1 (stereo unspecified)
inactive: [5] 93 % of control | [6] 109 % of control | [7] 95 % of control

Brc1ccccc1C[n+]1cccc2ccccc21
inactive: dose: 75.0 mg/kg/injection, schedule: Q01DX001 (ip), vehicle: other 101 % of control

O=S(=O)(Nc1ccc(Cl)cc1Cl)c1ccccc1
inactive: [5] 103 % of control | [6] 103 % of control | [7] 103 % of control

O=C(O)c1cc(Br)cc(Br)c1Cl
inactive: [8] 108 % of control | [9] 105 % of control | [10] 97 % of control

c1ccc([S][Pb]([c]2ccccc2)([c]2ccccc2)[c]2ccccc2)cc1
inactive: dose: 8.0 mg/kg/injection, schedule: Q04DX003 (ip), vehicle: saline 111 % of control | dose: 16.0 mg/kg/injection, schedule: Q04DX003 (ip), vehicle: saline 103 % of control | dose: 32.0 mg/kg/injection, schedule: Q04DX003 (ip), vehicle: saline 122 % of control

O=C1C(OC(=O)c2ccccc2)=C(c2ccc(O)cc2)C(=O)C(OC(=O)c2ccccc2)=C1c1ccc(O)cc1
inactive: dose: 12.5 mg/kg/injection, schedule: Q01DX Z (ip), vehicle: carboxymethylcellulose (CMC) 94 % of control | dose: 25.0 mg/kg/injection, schedule: Q01DX Z (ip), vehicle: carboxymethylcellulose (CMC) 94 % of control | dose: 50.0 mg/kg/injection, schedule: Q01DX Z (ip), vehicle: carboxymethylcellulose (CMC) 105 % of control | dose: 100.0 mg/kg/injection, schedule: Q01DX Z (ip), vehicle: carboxymethylcellulose (CMC) 102 % of control

N#CCCC#N (tested in a mixture with another compound)
inactive: [2] 96 % of control | [4] 102 % of control

CN=Cc1ccc([N+](=O)[O-])cc1
inactive: dose: 75.0 mg/kg/injection, schedule: Q01DX001 (ip), vehicle: Klucel (hydroxypropylcellulose) (HPC) 91 % of control | dose: 75.0 mg/kg/injection, schedule: Q01DX009 (ip), vehicle: Klucel (hydroxypropylcellulose) (HPC) 96 % of control | dose: 150.0 mg/kg/injection, schedule: Q01DX001 (ip), vehicle: Klucel (hydroxypropylcellulose) (HPC) 91 % of control | dose: 150.0 mg/kg/injection, schedule: Q01DX009 (ip), vehicle: Klucel (hydroxypropylcellulose) (HPC) 105 % of control | dose: 300.0 mg/kg/injection, schedule: Q01DX001 (ip), vehicle: Klucel (hydroxypropylcellulose) (HPC) 96 % of control | dose: 300.0 mg/kg/injection, schedule: Q01DX009 (ip), vehicle: Klucel (hydroxypropylcellulose) (HPC) 95 % of control

COC1OC(CBr)C(OC(=O)c2ccccc2)C(OC(=O)c2ccccc2)C1OS(=O)(=O)c1ccc(C)cc1 (stereo unspecified)
inactive: [11] 97 % of control | [8] 87 % of control | [9] 97 % of control

CSCCNC(=O)NS(=O)(=O)c1ccc(Cl)cc1
inactive: dose: 100.0 mg/kg/injection, schedule: Q04DX003 (ip), vehicle: saline 96 % of control | dose: 200.0 mg/kg/injection, schedule: Q04DX003 (ip), vehicle: saline 97 % of control | dose: 400.0 mg/kg/injection, schedule: Q04DX003 (ip), vehicle: saline 92 % of control

CC(C)=NOS(=O)(=O)c1c(C)cc(C)cc1C
inactive: [11] 98 % of control | [12] 87 % of control | [8] 98 % of control and 89 % of control | [13] 97 % of control | [9] 105 % of control | [14] 97 % of control | [10] 92 % of control

COc1ccc(C(=O)/C=C/c2ccc(N(C)C)cc2)cc1
inactive: dose: 37.5 mg/kg/injection, schedule: Q04DX003 (ip), vehicle: saline 95 % of control | dose: 75.0 mg/kg/injection, schedule: Q04DX003 (ip), vehicle: saline 90 % of control | dose: 150.0 mg/kg/injection, schedule: Q04DX003 (ip), vehicle: saline 89 % of control

COc1ccc(Cl)cc1NC(=O)Nc1cccc(C(C)=O)c1
inactive: [12] 102 % of control | [13] 93 % of control | [14] 90 % of control

CCCCC1(C(C)C)C(=O)NC(=O)NC1=O
inactive: dose: 75.0 mg/kg/injection, schedule: Q01DX001 (ip), vehicle: saline 102 % of control | dose: 150.0 mg/kg/injection, schedule: Q01DX001 (ip), vehicle: saline 96 % of control

CCC(=O)NC(N)=S
inactive: dose: 25.0 mg/kg/injection, schedule: Q01DX009 (ip), vehicle: Klucel (hydroxypropylcellulose) (HPC) 96 % of control | dose: 50.0 mg/kg/injection, schedule: Q01DX009 (ip), vehicle: Klucel (hydroxypropylcellulose) (HPC) 94 % of control

CCNC1C2CCC(C2)C1c1ccccc1 (stereo unspecified)
inactive: dose: 3.12 mg/kg/injection, schedule: Q01DX009 (ip), vehicle: saline 94 % of control | dose: 6.25 mg/kg/injection, schedule: Q01DX009 (ip), vehicle: saline 94 % of control | dose: 12.5 mg/kg/injection, schedule: Q01DX009 (ip), vehicle: saline 89 % of control | dose: 25.0 mg/kg/injection, schedule: Q01DX009 (ip), vehicle: saline 93 % of control | dose: 25.0 mg/kg/injection, schedule: Q04DX003 (ip), vehicle: saline 89 % of control | dose: 50.0 mg/kg/injection, schedule: Q04DX003 (ip), vehicle: saline 94 % of control

NC1(C(=O)O)CC2CC1C2 (stereo unspecified)
inactive: dose: 100.0 mg/kg/injection, schedule: Q04DX002 (ip), vehicle: other 95 % of control | dose: 200.0 mg/kg/injection, schedule: Q04DX002 (ip), vehicle: other 106 % of control | dose: 400.0 mg/kg/injection, schedule: Q04DX002 (ip), vehicle: other 92 % of control

CC(O)(c1ccccc1)c1ccccc1S(=O)(=O)Nc1ccccc1 (stereo unspecified)
inactive: dose: 100.0 mg/kg/injection, schedule: Q01DX001 (ip), vehicle: carboxymethylcellulose (CMC) 101 % of control | dose: 200.0 mg/kg/injection, schedule: Q01DX001 (ip), vehicle: carboxymethylcellulose (CMC) 93 % of control | dose: 400.0 mg/kg/injection, schedule: Q01DX001 (ip), vehicle: carboxymethylcellulose (CMC) 95 % of control

CC(=O)CC=NCCN=CCC(C)=O
inactive: dose: 100.0 mg/kg/injection, schedule: Q01DX001 (ip), vehicle: saline with Tween-80 98 % of control | dose: 200.0 mg/kg/injection, schedule: Q01DX001 (ip), vehicle: saline with Tween-80 103 % of control | dose: 400.0 mg/kg/injection, schedule: Q01DX001 (ip), vehicle: saline with Tween-80 95 % of control
